These are literature values, as cited in patent US20050089572A1, “Controlled release drug delivery system of pravastatin” (priority 2002, published 2005).

The conditions of this series: pH 3 or less as found in the stomach; degrades to lactone and 3-α-hydroxy-isopravastatin.

On to `CC[C@H](C)C(=O)O[C@H]1C[C@H](O)C=C2C=C[C@H](C)[C@H](CC[C@@H](O)C[C@@H](O)CC(=O)O)[C@H]21` [Pravastatin sodium, (+)-(3R, 5R)-3,5-dihydroxy-7-[(1S,2S,6S,8S,8aR)-6-hydroxy-2-methyl-8-[(S)-2-methylbutyryloxy]-1,2,6,7,8,8a-hexahydro-1-naphthyl] heptanoate], for which the “stability at low pH” value is on record as “very unstable”.
